Patent US5204338A, “Oxalylamino acid derivatives and their use as medicaments for inhibiting proline hydroxylase” (Hoechst Aktiengesellschaft, priority 1990, dated 1993)
Structures can show the parent of a compound that is named as a salt.

How the values were obtained:
[1] = tested on: Clq biosynthesis of macrophages; details: W. Muller et al., FEBS Lett. 90, 218 (1978); cited from earlier work
prolyl hydroxylase = prolyl hydroxylase (Homo sapiens, UniProt P13674); test: enzyme test: hydroxylation of underhydroxylated collagen with prolyl hydroxylase in the presence of iron(II) ions, α-keto glutarate and ascorbate; assay type: biochemical; details: concentration which leads to an 80% inhibition of enzyme activity (the value is indicated as Ki); salts
prolyl hydroxylase, sequence (P13674 18-534): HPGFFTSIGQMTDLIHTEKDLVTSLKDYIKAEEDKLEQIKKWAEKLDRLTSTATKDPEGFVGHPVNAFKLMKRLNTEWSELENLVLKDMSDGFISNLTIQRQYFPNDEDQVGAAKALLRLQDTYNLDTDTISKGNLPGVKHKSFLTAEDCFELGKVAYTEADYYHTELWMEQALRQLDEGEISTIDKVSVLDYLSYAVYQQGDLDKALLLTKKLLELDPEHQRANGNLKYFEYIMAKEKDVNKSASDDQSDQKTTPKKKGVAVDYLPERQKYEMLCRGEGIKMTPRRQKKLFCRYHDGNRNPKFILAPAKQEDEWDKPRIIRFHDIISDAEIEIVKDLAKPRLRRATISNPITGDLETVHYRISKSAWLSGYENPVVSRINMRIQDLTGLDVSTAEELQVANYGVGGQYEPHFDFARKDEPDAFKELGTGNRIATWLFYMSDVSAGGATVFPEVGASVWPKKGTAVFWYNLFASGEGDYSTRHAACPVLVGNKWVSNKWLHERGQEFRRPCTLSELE
prolyl hydroxylase, sequence (P07237 18-508 partner): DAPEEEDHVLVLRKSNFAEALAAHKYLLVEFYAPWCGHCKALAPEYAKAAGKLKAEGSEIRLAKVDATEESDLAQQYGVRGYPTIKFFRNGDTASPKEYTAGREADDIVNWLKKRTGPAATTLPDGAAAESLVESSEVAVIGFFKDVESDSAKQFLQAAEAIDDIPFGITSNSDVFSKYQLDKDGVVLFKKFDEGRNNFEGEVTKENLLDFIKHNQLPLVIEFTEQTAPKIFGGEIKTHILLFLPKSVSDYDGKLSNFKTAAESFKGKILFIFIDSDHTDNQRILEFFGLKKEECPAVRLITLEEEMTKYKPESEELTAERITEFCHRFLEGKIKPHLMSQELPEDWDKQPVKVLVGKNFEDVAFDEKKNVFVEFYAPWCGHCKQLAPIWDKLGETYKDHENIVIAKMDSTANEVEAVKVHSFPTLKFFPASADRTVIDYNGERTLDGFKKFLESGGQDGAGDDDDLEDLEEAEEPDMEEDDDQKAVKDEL

calvaria culture = test: calvaria culture: reduction of the hydroxyproline/proline quotients in metabolic labeling with ^14 C-proline; assay type: cell-based; details: 50% reduction of the hydroxyproline/proline quotients in metabolic labeling with ^14 C-proline; esters
Description: The inhibitory activity can also be determined in cell or tissue culture. To do this, fibroblasts or other collagen-producing cells or calvaria or other collagen-producing organs can be employed. The inhibitory activity of substances according to the invention in calvaria culture is collated in Table 3. The concentration is indicated which leads to a 50% reduction of the hydroxyproline/proline quotients in metabolic labeling with ^14 C-proline (IC50).

SMILES | Ki (prolyl hydroxylase) [µM] | IC50 (calvaria culture) [µM] | also measured
c1ccc(-c2ccccn2)nc1 [α, α-dipyridyl] |  |  | inhibition of Clq biosynthesis [1]: inhibition of Clq biosynthesis of macrophages
COC(=O)C(=O)N[C@@H](C)C(=O)OC [Example 1, (N-Oxalyl)-L-alanine dimethyl ester] |  | 350 | 
COC(=O)CNC(=O)C(=O)OC [Example 3, (N-Oxalyl)-L-glycine dimethyl ester] |  | 2 | 

More lines, main results first:

Ki (prolyl hydroxylase) [µM] | IC50 (calvaria culture) [µM] | SMILES | also measured
10 |  | O=C(O)CNC(=O)C(=O)O [Example 10, (N-Oxalyl)-L-glycine dipotassium salt] | 
40 |  | C[C@H](NC(=O)C(=O)O)C(=O)O [dipotassium salt] | 
